Assay results taken from PubChem BioAssay AID1982 (Sanford-Burnham Center for Chemical Genomics, 2009).
Active and inactive are the calls of the source. The rule behind the calls is not given here.

What was measured:
Assay in all cases: kinase panel binding selectivity, selectivity assay, biochemical, KINOMEscan (AID 1982)
[1] = biological target: ALK tyrosine kinase receptor (Homo sapiens) (UniProt Q9UM73); conditions: KINOMEscan 353-kinase binding panel, qPCR, at 10 µM, stronger effect = lower value
[2] = biological target: Aurora kinase B (Homo sapiens) (UniProt Q96GD4); conditions: KINOMEscan 353-kinase binding panel, qPCR; AURKB; at 10 µM; stronger effect = lower value
Sequence of Aurora kinase B (Homo sapiens) (Q96GD4 whole entry, looked up): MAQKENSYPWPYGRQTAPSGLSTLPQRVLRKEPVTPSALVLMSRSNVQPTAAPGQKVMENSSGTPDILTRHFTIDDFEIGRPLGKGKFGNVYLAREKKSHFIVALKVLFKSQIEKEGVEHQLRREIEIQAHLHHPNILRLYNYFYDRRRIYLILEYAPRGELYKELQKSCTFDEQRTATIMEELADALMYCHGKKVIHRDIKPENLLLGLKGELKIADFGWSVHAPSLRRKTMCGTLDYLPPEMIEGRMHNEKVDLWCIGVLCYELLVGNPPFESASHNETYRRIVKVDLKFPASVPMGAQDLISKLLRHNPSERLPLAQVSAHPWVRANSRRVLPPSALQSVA

BIKE = conditions: KINOMEscan 353-kinase binding panel, qPCR, at 10 µM, stronger effect = lower value
BRSK2 = conditions: KINOMEscan 353-kinase binding panel, qPCR, at 10 µM, stronger effect = lower value
[3] = biological target: Calcium/calmodulin-dependent protein kinase type 1D (Homo sapiens) (UniProt Q8IU85); conditions: KINOMEscan 353-kinase binding panel, qPCR; CAMK1D; at 10 µM; stronger effect = lower value
[4] = biological target: Calcium/calmodulin-dependent protein kinase type II subunit alpha (Homo sapiens) (UniProt Q9UQM7); conditions: KINOMEscan 353-kinase binding panel, qPCR; CAMK2A; at 10 µM; stronger effect = lower value
[5] = biological target: Dual specificity tyrosine-phosphorylation-regulated kinase 1B (Homo sapiens) (UniProt Q9Y463); conditions: KINOMEscan 353-kinase binding panel, qPCR; DYRK1B; at 10 µM; stronger effect = lower value
EPHB1 = conditions: KINOMEscan 353-kinase binding panel, qPCR, at 10 µM, stronger effect = lower value
ERK3 = conditions: KINOMEscan 353-kinase binding panel, qPCR, at 10 µM, stronger effect = lower value
ERK5 = conditions: KINOMEscan 353-kinase binding panel, qPCR, at 10 µM, stronger effect = lower value
GAK = conditions: KINOMEscan 353-kinase binding panel, qPCR, at 10 µM, stronger effect = lower value
[6] = biological target: Glycogen synthase kinase-3 beta (Homo sapiens) (UniProt P49841); conditions: KINOMEscan 353-kinase binding panel, qPCR; GSK3B; at 10 µM; stronger effect = lower value
MAP4K3 = conditions: KINOMEscan 353-kinase binding panel, qPCR, at 10 µM, stronger effect = lower value
[7] = biological target: Mitogen-activated protein kinase 12 (Homo sapiens) (UniProt P53778); conditions: KINOMEscan 353-kinase binding panel, qPCR; p38-gamma; at 10 µM; stronger effect = lower value
Sequence of Mitogen-activated protein kinase 12 (Homo sapiens) (P53778 whole entry, looked up): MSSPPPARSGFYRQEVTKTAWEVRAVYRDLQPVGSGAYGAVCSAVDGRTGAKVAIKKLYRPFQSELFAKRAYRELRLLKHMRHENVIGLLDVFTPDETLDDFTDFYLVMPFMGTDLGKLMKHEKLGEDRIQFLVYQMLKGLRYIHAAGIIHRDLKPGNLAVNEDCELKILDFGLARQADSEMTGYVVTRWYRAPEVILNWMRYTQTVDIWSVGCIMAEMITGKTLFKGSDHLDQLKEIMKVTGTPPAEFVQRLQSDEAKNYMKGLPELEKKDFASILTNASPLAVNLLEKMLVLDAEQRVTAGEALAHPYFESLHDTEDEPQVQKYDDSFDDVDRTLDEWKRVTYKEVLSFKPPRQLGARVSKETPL

NEK5 = conditions: KINOMEscan 353-kinase binding panel, qPCR, at 10 µM, stronger effect = lower value
PAK3 = conditions: KINOMEscan 353-kinase binding panel, qPCR, at 10 µM, stronger effect = lower value
PCTK1 = conditions: KINOMEscan 353-kinase binding panel, qPCR, at 10 µM, stronger effect = lower value
PCTK2 = conditions: KINOMEscan 353-kinase binding panel, qPCR, at 10 µM, stronger effect = lower value
PCTK3 = conditions: KINOMEscan 353-kinase binding panel, qPCR, at 10 µM, stronger effect = lower value
PFTAIRE2 = conditions: KINOMEscan 353-kinase binding panel, qPCR, at 10 µM, stronger effect = lower value
PKN1 = conditions: KINOMEscan 353-kinase binding panel, qPCR, at 10 µM, stronger effect = lower value
PRKR = conditions: KINOMEscan 353-kinase binding panel, qPCR, at 10 µM, stronger effect = lower value
[8] = biological target: RAC-alpha serine/threonine-protein kinase (Homo sapiens) (UniProt P31749); conditions: KINOMEscan 353-kinase binding panel, qPCR; AKT1; at 10 µM; stronger effect = lower value
[9] = biological target: RAC-gamma serine/threonine-protein kinase (Homo sapiens) (UniProt Q9Y243); conditions: KINOMEscan 353-kinase binding panel, qPCR; AKT3; at 10 µM; stronger effect = lower value
Sequence of RAC-gamma serine/threonine-protein kinase (Homo sapiens) (Q9Y243 whole entry, looked up): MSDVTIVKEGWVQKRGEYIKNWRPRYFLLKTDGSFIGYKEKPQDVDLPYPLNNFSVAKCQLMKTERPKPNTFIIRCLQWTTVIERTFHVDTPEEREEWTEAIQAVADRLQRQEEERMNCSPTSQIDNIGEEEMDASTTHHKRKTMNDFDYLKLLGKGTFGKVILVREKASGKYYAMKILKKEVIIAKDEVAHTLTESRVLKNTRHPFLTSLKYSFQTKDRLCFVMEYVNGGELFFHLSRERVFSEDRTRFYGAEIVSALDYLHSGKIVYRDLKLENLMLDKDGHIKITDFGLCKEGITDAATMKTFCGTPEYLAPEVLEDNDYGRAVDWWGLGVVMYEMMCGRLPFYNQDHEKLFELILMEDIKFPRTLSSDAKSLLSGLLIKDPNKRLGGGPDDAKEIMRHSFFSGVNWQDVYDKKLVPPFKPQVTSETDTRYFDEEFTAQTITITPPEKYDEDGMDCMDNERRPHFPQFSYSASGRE

SNARK = conditions: KINOMEscan 353-kinase binding panel, qPCR, at 10 µM, stronger effect = lower value
SNF1LK = conditions: KINOMEscan 353-kinase binding panel, qPCR, at 10 µM, stronger effect = lower value
STK16 = conditions: KINOMEscan 353-kinase binding panel, qPCR, at 10 µM, stronger effect = lower value
[10] = biological target: Serine/threonine-protein kinase D2 (Homo sapiens) (UniProt Q9BZL6); conditions: KINOMEscan 353-kinase binding panel, qPCR; PRKD2; at 10 µM; stronger effect = lower value
[11] = biological target: Serine/threonine-protein kinase MRCK alpha (Homo sapiens) (UniProt Q5VT25); conditions: KINOMEscan 353-kinase binding panel, qPCR; MRCKA; at 10 µM; stronger effect = lower value
Sequence of Serine/threonine-protein kinase MRCK alpha (Homo sapiens) (Q5VT25 whole entry, looked up): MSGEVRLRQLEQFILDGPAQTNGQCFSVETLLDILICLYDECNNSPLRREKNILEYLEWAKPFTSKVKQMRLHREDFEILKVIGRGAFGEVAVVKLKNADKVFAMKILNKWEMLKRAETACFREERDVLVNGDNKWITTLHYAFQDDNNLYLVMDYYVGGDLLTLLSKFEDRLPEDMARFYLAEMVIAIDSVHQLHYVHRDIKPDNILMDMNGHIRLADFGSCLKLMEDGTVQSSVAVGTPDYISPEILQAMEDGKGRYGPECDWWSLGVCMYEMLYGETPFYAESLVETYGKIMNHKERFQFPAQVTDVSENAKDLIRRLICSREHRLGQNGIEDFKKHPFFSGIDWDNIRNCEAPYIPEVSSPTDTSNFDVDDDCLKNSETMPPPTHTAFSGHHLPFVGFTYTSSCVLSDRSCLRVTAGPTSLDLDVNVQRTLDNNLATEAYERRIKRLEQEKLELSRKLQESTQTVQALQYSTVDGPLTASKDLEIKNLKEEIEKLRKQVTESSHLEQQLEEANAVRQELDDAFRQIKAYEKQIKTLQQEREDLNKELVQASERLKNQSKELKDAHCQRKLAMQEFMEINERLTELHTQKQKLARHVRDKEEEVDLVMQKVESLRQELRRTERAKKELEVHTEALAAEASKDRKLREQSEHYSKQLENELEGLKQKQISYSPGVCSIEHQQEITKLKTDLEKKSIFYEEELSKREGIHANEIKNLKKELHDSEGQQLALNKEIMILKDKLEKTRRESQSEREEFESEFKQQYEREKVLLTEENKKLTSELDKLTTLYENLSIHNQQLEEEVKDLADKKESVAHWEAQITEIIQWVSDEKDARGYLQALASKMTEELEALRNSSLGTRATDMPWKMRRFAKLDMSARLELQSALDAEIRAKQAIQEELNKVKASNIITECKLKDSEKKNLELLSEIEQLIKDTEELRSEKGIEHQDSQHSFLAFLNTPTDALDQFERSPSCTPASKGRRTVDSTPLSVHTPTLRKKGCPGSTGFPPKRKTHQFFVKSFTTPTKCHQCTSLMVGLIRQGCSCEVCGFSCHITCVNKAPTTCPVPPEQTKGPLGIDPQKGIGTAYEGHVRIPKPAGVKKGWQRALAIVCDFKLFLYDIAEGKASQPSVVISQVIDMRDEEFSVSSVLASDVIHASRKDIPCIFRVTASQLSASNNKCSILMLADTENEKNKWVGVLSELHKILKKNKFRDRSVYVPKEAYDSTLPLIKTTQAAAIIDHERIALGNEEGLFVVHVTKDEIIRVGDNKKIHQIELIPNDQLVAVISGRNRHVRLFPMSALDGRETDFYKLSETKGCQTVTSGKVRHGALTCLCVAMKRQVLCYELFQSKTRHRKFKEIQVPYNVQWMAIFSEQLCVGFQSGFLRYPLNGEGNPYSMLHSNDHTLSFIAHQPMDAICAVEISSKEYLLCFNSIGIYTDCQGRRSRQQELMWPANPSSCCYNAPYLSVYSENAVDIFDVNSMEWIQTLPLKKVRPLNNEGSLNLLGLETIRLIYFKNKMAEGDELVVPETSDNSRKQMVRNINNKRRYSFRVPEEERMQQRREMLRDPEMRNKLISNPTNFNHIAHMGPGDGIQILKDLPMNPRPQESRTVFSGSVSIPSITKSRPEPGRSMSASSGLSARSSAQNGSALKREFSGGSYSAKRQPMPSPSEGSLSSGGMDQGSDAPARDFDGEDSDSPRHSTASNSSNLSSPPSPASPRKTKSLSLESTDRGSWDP

[12] = biological target: Serine/threonine-protein kinase PAK 5 (Homo sapiens) (UniProt Q9P286); conditions: KINOMEscan 353-kinase binding panel, qPCR; PAK7/PAK5; at 10 µM; stronger effect = lower value
[13] = biological target: Serine/threonine-protein kinase PAK 6 (Homo sapiens) (UniProt Q9NQU5); conditions: KINOMEscan 353-kinase binding panel, qPCR; PAK6; at 10 µM; stronger effect = lower value
Sequence of Serine/threonine-protein kinase PAK 6 (Homo sapiens) (Q9NQU5 whole entry, looked up): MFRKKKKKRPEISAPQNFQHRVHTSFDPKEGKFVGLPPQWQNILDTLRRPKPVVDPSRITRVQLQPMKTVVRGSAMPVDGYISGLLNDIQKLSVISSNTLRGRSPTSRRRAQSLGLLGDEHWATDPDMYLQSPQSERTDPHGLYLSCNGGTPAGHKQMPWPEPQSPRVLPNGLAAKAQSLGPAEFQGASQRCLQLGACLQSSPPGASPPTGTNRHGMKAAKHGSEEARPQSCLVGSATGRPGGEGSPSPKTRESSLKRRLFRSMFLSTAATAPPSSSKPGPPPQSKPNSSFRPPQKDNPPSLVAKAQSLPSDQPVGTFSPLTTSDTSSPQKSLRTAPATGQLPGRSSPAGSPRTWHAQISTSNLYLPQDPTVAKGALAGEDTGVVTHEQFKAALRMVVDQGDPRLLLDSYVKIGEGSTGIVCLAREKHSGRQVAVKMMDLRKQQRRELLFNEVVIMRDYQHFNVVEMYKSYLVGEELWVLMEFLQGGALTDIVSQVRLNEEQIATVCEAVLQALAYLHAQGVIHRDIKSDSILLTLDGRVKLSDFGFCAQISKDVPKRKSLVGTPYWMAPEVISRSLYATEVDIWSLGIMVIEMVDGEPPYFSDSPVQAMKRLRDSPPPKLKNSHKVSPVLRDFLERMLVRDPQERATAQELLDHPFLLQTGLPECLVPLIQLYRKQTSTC

TNK1 = conditions: KINOMEscan 353-kinase binding panel, qPCR, at 10 µM, stronger effect = lower value
TXK = conditions: KINOMEscan 353-kinase binding panel, qPCR, at 10 µM, stronger effect = lower value
[14] = biological target: Tyrosine-protein kinase BTK (Homo sapiens) (UniProt Q06187); conditions: KINOMEscan 353-kinase binding panel, qPCR, at 10 µM, stronger effect = lower value
[15] = biological target: Tyrosine-protein kinase receptor TYRO3 (Homo sapiens) (UniProt Q06418); conditions: KINOMEscan 353-kinase binding panel, qPCR, at 10 µM, stronger effect = lower value
[16] = biological target: Vascular endothelial growth factor receptor 3 (Homo sapiens) (UniProt P35916); conditions: KINOMEscan 353-kinase binding panel, qPCR; FLT4; at 10 µM; stronger effect = lower value
Sequence of Vascular endothelial growth factor receptor 3 (Homo sapiens) (P35916 whole entry, looked up): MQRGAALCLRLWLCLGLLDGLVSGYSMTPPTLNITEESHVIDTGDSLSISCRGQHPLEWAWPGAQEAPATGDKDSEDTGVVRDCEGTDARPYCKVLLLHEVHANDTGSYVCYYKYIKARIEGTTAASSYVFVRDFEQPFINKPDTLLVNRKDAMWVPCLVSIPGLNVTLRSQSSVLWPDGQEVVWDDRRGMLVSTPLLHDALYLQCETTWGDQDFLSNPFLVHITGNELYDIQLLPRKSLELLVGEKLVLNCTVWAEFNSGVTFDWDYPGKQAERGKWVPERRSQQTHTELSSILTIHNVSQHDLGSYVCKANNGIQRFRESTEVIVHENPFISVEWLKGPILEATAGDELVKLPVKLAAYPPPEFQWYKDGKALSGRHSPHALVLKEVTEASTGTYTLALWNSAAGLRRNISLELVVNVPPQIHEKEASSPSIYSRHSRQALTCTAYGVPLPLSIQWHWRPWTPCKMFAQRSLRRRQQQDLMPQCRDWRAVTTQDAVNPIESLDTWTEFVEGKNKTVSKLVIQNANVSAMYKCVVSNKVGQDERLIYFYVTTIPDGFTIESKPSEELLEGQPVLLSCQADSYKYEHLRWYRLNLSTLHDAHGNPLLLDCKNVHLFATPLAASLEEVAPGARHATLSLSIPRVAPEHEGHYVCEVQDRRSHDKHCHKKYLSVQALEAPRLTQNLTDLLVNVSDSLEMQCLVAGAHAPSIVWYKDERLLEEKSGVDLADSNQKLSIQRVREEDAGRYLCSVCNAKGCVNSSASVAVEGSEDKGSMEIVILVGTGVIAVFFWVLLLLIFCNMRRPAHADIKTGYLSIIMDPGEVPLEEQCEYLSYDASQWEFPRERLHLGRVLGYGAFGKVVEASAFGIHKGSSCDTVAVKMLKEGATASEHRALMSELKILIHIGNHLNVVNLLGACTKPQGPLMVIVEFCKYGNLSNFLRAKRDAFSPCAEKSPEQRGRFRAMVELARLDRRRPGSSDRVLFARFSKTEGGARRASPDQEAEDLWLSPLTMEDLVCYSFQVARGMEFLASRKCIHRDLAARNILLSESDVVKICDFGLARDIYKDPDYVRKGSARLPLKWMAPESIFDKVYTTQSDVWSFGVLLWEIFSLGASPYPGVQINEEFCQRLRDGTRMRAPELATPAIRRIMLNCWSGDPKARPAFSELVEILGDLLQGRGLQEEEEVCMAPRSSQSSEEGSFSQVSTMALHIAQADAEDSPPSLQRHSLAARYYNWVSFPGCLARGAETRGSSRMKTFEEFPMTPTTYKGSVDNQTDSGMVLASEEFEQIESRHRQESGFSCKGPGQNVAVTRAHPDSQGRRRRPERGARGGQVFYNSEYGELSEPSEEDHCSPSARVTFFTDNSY

Measured: percent of control binding

Cc1cc2nc(NCCCO)n(CC(=O)c3cc(C(C)(C)C)c(O)c(C(C)(C)C)c3)c2cc1C
inactive: [1] 100% | [2] 100% | BIKE 98% | BRSK2 100% | [3] 100% | [4] 85% | [5] 91% | EPHB1 95% | ERK3 86% | ERK5 100% | GAK 90% | [6] 100% | MAP4K3 100% | [7] 95% | NEK5 91% | PAK3 79% | PCTK1 84% | PCTK2 99% | PCTK3 82% | PFTAIRE2 53% | PKN1 100% | PRKR 98% | [8] 100% | [9] 100% | SNARK 80% | SNF1LK 100% | STK16 77% | [10] 91% | [11] 90% | [12] 79% | [13] 76% | TNK1 80% | TXK 99% | [14] 85% | [15] 100% | [16] 100%
